Assay results taken from PMC6291754 (Frontiers in Microbiology, 2018).
pIC50: −log10 of the molar value.

Legend:
Experiment in all cases: microbe, parasite or virus in culture
[1] = system: A(H1N1)pdm09 viruses; format: cell-based, influenza A(H1N1)pdm09 virus; conditions: Influenza A virus, H1N1, read-out: median IC50
[2] = system: B/Victoria-lineage viruses; format: cell-based; conditions: Influenza B virus, read-out: median IC50
[3] = system: B/Yamagata-lineage viruses; format: cell-based; conditions: Influenza B virus, read-out: median IC50
[4] = system: A(H3N2) viruses; format: cell-based; conditions: Influenza A virus, H3N2, read-out: median IC50

`O=C1c2c(O)c(=O)ccn2N([C@@H]2c3ccccc3SCc3c2ccc(F)c3F)[C@@H]2COCCN12` [Baloxavir, baloxavir acid] was tested, and the pIC50 [1] was 9.55, the pIC50 [2] was 8.47 and the pIC50 [3] was 8.61. It also gave a pIC50 [4] of 9.80.
